Test results as given in ChEMBL document CHEMBL5131537 (J Med Chem, 2022).

How the values were obtained:
[1] = Oral bioavailability in Sprague-Dawley rat at 5 mg/kg measured after 0.083 to 24 hrs by LC-MS analysis; type: ADME, organism-based; conditions: in vivo, time 0.083-24 hrs
[2] = Half life in Sprague-Dawley rat at 1 mg/kg, iv measured after 0.083 to 24 hrs by LC-MS analysis; type: ADME, organism-based; conditions: in vivo, time 0.083-24 hrs
[3] = Cytotoxicity against human MT4 cells assessed as reduction in cell viability by MTT assay; type: toxicity, cell-based
[4] = tested on: Human immunodeficiency virus 1; experiment: Antiviral activity against HIV-1 IIIB harboring reverse transcriptase […] mutant infected in human MT4 cells by MTT assay; type: functional, organism-based; conditions: Human immunodeficiency virus 1, IIIB
[5] = tested on: Human immunodeficiency virus 1; experiment: Antiviral activity against HIV-1 IIIB harboring reverse transcriptase K103N mutant infected in human MT4 cells by MTT assay; type: functional, organism-based; conditions: Human immunodeficiency virus 1, IIIB
[6] = tested on: Human immunodeficiency virus 1; experiment: Antiviral activity against HIV-1 IIIB harboring reverse transcriptase Y181C mutant infected in human MT4 cells by MTT assay; type: functional, organism-based; conditions: Human immunodeficiency virus 1, IIIB
[7] = tested on: Human immunodeficiency virus 1; experiment: Antiviral activity against HIV-1 IIIB harboring reverse transcriptase E138K mutant infected in human MT4 cells by MTT assay; type: functional, organism-based; conditions: Human immunodeficiency virus 1, IIIB
[8] = target: Voltage-gated inwardly rectifying potassium channel KCNH2 (Homo sapiens, UniProt Q12809); experiment: Inhibition of human ERG potassium channel transfected in CHO cells by automated patch clamp assay; type: toxicity, cell-based
[9] = target: T1, Cytochrome P450 1A2 (Homo sapiens, UniProt P05177); experiment: Inhibition of CYP1A2 in human liver microsomes using phenacetin as substrate incubated for 15 to 45 mins in presence of NADPH
T1 sequence (P05177 whole entry): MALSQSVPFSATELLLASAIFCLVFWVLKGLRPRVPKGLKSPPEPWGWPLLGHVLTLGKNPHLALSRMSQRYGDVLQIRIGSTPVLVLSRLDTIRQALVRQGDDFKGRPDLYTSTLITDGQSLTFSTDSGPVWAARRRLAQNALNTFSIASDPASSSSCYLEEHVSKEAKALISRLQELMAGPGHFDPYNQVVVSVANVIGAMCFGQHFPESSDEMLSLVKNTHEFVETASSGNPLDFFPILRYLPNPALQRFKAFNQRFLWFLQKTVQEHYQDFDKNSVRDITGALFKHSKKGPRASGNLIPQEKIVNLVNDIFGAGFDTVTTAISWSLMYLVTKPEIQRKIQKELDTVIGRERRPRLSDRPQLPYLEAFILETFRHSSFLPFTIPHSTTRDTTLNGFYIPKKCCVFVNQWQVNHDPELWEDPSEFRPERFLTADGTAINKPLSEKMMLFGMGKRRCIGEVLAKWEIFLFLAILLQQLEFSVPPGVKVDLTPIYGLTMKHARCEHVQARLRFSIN

[10] = target: Cytochrome P450 2C9 (Homo sapiens, UniProt P11712); experiment: Inhibition of CYP2C9 in human liver microsomes using diclofenac as substrate incubated for 15 to 45 mins in presence of NADPH
[11] = target: Cytochrome P450 3A4 (Homo sapiens, UniProt P08684); experiment: Inhibition of CYP3A4 in human liver microsomes using midazolam as substrate incubated for 15 to 45 mins in presence of NADPH
[12] = target: hERG (KCNH2) (Homo sapiens, UniProt Q12809); experiment: Inhibition of human ERG potassium channel transfected in CHO cells at 40 uM by automated patch clamp assay; type: toxicity, cell-based; conditions: CHO cells transfected with hERG
[13] = Half life in Sprague-Dawley rat at 5 mg/kg, po measured after 0.083 to 24 hrs by LC-MS analysis; type: ADME, organism-based; conditions: in vivo, time 0.083-24 hrs
[14] = AUC (0 to t) in Sprague-Dawley rat at 1 mg/kg, iv measured after 0.083 to 24 hrs by LC-MS analysis; type: ADME, organism-based; set-up: time upper 24 hrs, dose 1 mg/kg, time lower 0.083 hrs, route iv; conditions: in vivo
[15] = AUC (0 to infinity) in Sprague-Dawley rat at 1 mg/kg, iv measured after 0.083 to 24 hrs by LC-MS analysis; type: ADME, organism-based; set-up: dose 1 mg/kg, time 0.083-24 hrs, route iv; conditions: in vivo
[16] = AUC (0 to infinity) in Sprague-Dawley rat at 5 mg/kg, po measured after 0.083 to 24 hrs by LC-MS analysis; type: ADME, organism-based; set-up: time upper 24 hrs, dose 5 mg/kg, time lower 0.083 hrs, route po; conditions: in vivo
[17] = Clearance in Sprague-Dawley rat at 5 mg/kg, po measured after 0.083 to 24 hrs by LC-MS analysis; type: ADME, organism-based; conditions: in vivo, time 0.083-24 hrs
[18] = Acute toxicity in 12 hr fasted male CD-1(ICR) mouse assessed as animal death at 2 g/kg, IG administered as single dose measured after 14 days; conditions: in vivo, po, 2000 mg/kg, 336 h, time 14 day
[19] = Acute toxicity in 12 hr fasted female CD-1(ICR) mouse assessed as animal death at 2 g/kg, IG administered as single dose measured after 14 days; conditions: in vivo, po, 2000 mg/kg, 336 h, time 14 day
[20] = Acute toxicity in 12 hr fasted female CD-1(ICR) mouse assessed as behavioral abnormalities at 2 g/kg, IG administered as single dose measured after 14 days; conditions: in vivo, po, 2000 mg/kg, 336 h, time 14 day
[21] = Acute toxicity in 12 hr fasted female CD-1(ICR) mouse assessed as pathological damage in liver at 2 g/kg, IG administered as single dose measured after 14 days by H and E staining based analysis; type: tissue-based; conditions: in vivo, po, 2000 mg/kg, 336 h, time 14 day
[22] = Acute toxicity in 12 hr fasted male CD-1(ICR) mouse assessed as pathological damage in heart at 2 g/kg, IG administered as single dose measured after 14 days by H and E staining based analysis; type: tissue-based; conditions: in vivo, po, 2000 mg/kg, 336 h, time 14 day
[23] = Acute toxicity in 12 hr fasted female CD-1(ICR) mouse assessed as pathological damage in heart at 2 g/kg, IG administered as single dose measured after 14 days by H and E staining based analysis; type: tissue-based; conditions: in vivo, po, 2000 mg/kg, 336 h, time 14 day
[24] = Acute toxicity in 12 hr fasted male CD-1(ICR) mouse assessed as pathological damage in brain at 2 g/kg, IG administered as single dose measured after 14 days by H and E staining based analysis; type: tissue-based; conditions: in vivo, po, 2000 mg/kg, 336 h, time 14 day
[25] = Acute toxicity in 12 hr fasted male CD-1(ICR) mouse assessed as pathological damage in spleen at 2 g/kg, IG administered as single dose measured after 14 days by H and E staining based analysis; type: tissue-based; conditions: in vivo, po, 2000 mg/kg, 336 h, time 14 day
[26] = Acute toxicity in 12 hr fasted female CD-1(ICR) mouse assessed as pathological damage in spleen at 2 g/kg, IG administered as single dose measured after 14 days by H and E staining based analysis; type: tissue-based; conditions: in vivo, po, 2000 mg/kg, 336 h, time 14 day
[27] = Acute toxicity in 12 hr fasted female CD-1(ICR) mouse assessed as pathological damage in lung at 2 g/kg, IG administered as single dose measured after 14 days by H and E staining based analysis; type: tissue-based; conditions: in vivo, po, 2000 mg/kg, 336 h, time 14 day
[28] = Acute toxicity in 12 hr fasted female CD-1(ICR) mouse assessed as pathological damage in kidney at 2 g/kg, IG administered as single dose measured after 14 days by H and E staining based analysis; type: tissue-based; conditions: in vivo, po, 2000 mg/kg, 336 h, time 14 day
[29] = target: Human immunodeficiency virus type 1 reverse transcriptase (Human immunodeficiency virus 1, UniProt Q72547)
Description: Inhibition of HIV-1 reverse transcriptase using oligo(dT)16 as primer measured after 40 mins by picogreen-dye based spectrofluorometric analysis

[30] = in vitro; conditions: human, MT4 cells
Description: Selectivity index, ratio of CC50 for cytotoxicity against human MT4 cells to EC50 for antiviral activity against wild type HIV-1 IIIB infected in human MT4 cells

[31] = tested on: Human immunodeficiency virus 1; experiment: microbe, parasite or virus in culture; conditions: Human immunodeficiency virus 1, IIIB, MT4
Description: Antiviral activity against wild type HIV-1 IIIB infected in human MT4 cells assessed as protection against virus-induced cytopathic effect by MTT assay

Sequence of Cytochrome P450 3A4 (P08684 whole entry): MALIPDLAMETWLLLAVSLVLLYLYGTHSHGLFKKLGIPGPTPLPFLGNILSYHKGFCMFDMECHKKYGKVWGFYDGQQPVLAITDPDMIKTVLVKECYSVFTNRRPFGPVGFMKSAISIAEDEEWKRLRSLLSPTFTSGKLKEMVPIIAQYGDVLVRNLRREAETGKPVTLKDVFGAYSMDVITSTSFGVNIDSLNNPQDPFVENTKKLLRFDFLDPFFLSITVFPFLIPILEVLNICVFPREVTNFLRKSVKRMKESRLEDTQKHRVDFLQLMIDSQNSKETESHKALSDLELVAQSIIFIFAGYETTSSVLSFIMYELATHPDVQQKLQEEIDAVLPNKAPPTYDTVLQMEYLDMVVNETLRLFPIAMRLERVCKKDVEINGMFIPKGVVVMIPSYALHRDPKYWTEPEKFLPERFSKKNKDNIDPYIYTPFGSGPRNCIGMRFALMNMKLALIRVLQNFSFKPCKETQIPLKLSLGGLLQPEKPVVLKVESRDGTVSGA
Sequence of Cytochrome P450 2C9 (P11712 whole entry): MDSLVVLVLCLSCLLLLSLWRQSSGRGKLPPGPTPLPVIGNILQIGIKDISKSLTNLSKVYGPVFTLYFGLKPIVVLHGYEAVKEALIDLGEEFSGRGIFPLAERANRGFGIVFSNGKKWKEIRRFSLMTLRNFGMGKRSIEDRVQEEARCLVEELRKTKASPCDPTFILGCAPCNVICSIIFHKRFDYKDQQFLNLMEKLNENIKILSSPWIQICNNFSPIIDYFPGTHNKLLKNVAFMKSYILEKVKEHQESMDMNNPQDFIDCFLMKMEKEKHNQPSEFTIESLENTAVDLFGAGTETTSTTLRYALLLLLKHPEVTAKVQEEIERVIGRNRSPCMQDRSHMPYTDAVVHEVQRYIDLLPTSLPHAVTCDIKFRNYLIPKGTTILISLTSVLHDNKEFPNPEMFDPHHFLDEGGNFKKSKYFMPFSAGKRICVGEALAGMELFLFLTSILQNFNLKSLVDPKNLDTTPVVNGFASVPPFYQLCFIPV
Sequence of Voltage-gated inwardly rectifying potassium channel KCNH2 (Q12809 whole entry): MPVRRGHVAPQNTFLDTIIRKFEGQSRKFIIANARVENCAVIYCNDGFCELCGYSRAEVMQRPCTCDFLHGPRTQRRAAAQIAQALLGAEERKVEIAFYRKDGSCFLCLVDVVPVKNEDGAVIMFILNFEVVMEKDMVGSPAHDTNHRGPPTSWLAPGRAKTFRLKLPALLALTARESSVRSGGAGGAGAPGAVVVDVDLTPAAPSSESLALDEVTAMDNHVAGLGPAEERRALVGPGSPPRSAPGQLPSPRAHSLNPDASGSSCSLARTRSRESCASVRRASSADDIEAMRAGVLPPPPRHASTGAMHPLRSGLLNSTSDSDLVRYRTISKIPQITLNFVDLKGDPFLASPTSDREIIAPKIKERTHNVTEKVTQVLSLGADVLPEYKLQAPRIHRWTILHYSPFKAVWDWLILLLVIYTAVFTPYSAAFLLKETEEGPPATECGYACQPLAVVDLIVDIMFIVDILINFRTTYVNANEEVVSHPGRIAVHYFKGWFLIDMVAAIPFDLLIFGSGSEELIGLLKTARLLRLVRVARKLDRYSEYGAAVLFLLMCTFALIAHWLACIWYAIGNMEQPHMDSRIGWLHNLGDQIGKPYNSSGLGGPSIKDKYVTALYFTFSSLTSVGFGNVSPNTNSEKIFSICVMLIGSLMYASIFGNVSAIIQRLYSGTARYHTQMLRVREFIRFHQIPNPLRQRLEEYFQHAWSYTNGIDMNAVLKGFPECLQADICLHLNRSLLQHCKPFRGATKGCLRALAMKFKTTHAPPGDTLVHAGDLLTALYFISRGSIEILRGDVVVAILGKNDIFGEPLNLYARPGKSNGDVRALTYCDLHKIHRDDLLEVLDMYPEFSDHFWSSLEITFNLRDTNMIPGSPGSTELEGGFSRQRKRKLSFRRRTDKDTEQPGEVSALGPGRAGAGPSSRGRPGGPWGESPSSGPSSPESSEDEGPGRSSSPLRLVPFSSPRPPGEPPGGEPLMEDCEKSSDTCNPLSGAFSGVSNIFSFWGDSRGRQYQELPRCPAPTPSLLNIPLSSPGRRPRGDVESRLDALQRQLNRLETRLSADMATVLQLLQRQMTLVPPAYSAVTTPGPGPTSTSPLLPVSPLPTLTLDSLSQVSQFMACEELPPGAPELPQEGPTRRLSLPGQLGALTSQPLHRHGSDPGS
Sequence of hERG (KCNH2) (Q12809 whole entry): as above

COc1cc(-c2ccc(C#N)cc2)ccc1Oc1cc(N)nc(Nc2ccc(C#N)cc2)n1
bioavailability [1]: 7.57%
half-life [2]: 1 h
CC50 [3]: 120 µM
EC50 [4]: 0.019 µM
EC50 [5]: 0.004 µM
EC50 [6]: 0.029 µM
EC50 [7]: 0.009 µM
IC50 [8]: > 40 µM
IC50 [9]: > 50 µM
IC50 [10]: 5.16 µM
IC50 [11]: > 50 µM
inhibition at 40 µM [12]: 35.9%
half-life [13]: 2.33 h
AUC(0-t) [14]: 326 ng·h/mL
AUC(0-inf) [15]: 329 ng·h/mL
AUC(0-inf) [16]: 124 ng·h/mL
CL/F [17]: 675 mL/min/kg
Activity [18]: Non-Toxic
Activity [19]: Non-Toxic
Activity [20]: Non-Toxic
Activity [21]: Non-Toxic
Activity [22]: Non-Toxic
Activity [23]: Non-Toxic
Activity [24]: Non-Toxic
Activity [25]: Non-Toxic
Activity [26]: Non-Toxic
Activity [27]: Non-Toxic
Activity [28]: Non-Toxic
IC50 [29]: 0.036 µM
selectivity ratio [30]: 63400
EC50 [31]: 0.0019 µM
